The structures appear in SMILES notation. Activity calls are given as the source filed them. No cut-off for these calls is given here.

Data set [1] can be described thus: Drug uptake in BALB/c mouse tumor xenografted with human KB cells at 10 nmol measured for 8 hrs in presence of folic acid. Type of data set: ADME, tissue-based, Neoplasm. To be noted: in vivo.
A short description of data set [2]: Acute toxicity in ICR mouse assessed as effect on food intake at 10 micromol/ml measured for 14 days. To be noted: in vivo, 336 h, dose 10 µmol/ml, time 14 day.
Data set [3] in a line: Drug uptake in BALB/c mouse tumor xenografted with human KB cells at 10 nmol measured for 8 hrs. Type of data set: ADME, tissue-based, Neoplasm. To be noted: in vivo.
A short description of data set [4]: Ratio of biodistribution in tumor to liver of human KB cell xenografted in BALB/c mouse at 10 nmol measured for 8 hrs. Type of data set: ADME, organism-based. To be noted: in vivo.
A short description of data set [5]: Acute toxicity in ICR mouse assessed as animal death at 10 micromol/ml measured for 14 days. To be noted: in vivo, 336 h, dose 10 µmol/ml, time 14 day.
Data set [6] in a line: Drug uptake in BALB/c nude mouse tumor xenografted with human KB cells assessed as increase in fluorescence signals measured for 2 days. Type of data set: ADME, tissue-based, Neoplasm. To be noted: in vivo, 48 h, time 2 day.
The nature of data set [7]: Acute toxicity in ICR mouse assessed as kidney damage at 10 micromol/ml measured for 14 days by H and E staining based analysis. Type of data set: tissue-based. The conditions noted are these: in vivo, 336 h, dose 10 µmol/ml, time 14 day.
The nature of data set [8]: Ratio of biodistribution in tumor to heart of human KB cell xenografted in BALB/c mouse at 10 nmol measured for 8 hrs. Type of data set: ADME, organism-based. The conditions noted are these: in vivo.
Data set [9] has as its system KB. The experiment in a line: Binding affinity to Folate receptor in human KB cells assessed as relative fluorescence intensity incubated for 1 hr by flow cytometry analysis. Type of data set: cell-based.
Data set [10] in a line: Acute toxicity in ICR mouse assessed as heart damage at 10 micromol/ml measured for 14 days by H and E staining based analysis. To be noted: in vivo, 336 h, dose 10 µmol/ml, time 14 day. Type of data set: tissue-based.
A short description of data set [11]: Acute toxicity in ICR mouse assessed as spleen damage at 10 micromol/ml measured for 14 days by H and E staining based analysis. Type of data set: tissue-based. To be noted: in vivo, 336 h, dose 10 µmol/ml, time 14 day.
Data set [12] in a line: Drug uptake in BALB/c mouse tumor xenografted with human A549 cells at 10 nmol measured for 8 hrs in presence of folic acid. Type of data set: ADME, tissue-based, Neoplasm.
Data set [13] can be described thus: Acute toxicity in ICR mouse assessed as liver damage at 10 micromol/ml measured for 14 days by H and E staining based analysis. Type of data set: tissue-based. To be noted: in vivo, 336 h, dose 10 µmol/ml, time 14 day.
A short description of data set [14]: Drug uptake in BALB/c nude mouse tumor xenografted with human A549 cells assessed as increase in fluorescence signals measured for 2 days. Type of data set: ADME, tissue-based, Neoplasm. To be noted: 48 h, time 2 day.
The next data set deals with Folate receptor beta (Mus musculus, UniProt Q05685). As to the kind of experiment: Binding affinity to Folate receptor beta in mouse RAW264.7 cells assessed as dissociation constant. Type of data set: cell-based.
Chain of Folate receptor beta (Q05685 whole entry): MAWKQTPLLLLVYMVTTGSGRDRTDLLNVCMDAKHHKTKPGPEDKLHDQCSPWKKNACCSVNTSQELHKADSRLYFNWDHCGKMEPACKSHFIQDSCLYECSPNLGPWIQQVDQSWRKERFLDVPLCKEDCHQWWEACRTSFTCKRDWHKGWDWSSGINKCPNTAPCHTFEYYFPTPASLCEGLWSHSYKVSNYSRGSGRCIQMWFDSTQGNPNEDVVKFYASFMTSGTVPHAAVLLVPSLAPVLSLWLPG
Data set [15] in a line: Ratio of biodistribution in tumor to lung of human KB cell xenografted in BALB/c mouse at 10 nmol measured for 8 hrs. Type of data set: ADME, organism-based. The conditions noted are these: in vivo.
Data set [16] can be described thus: Elimination half life in BALB/c mouse at 10 nmol measured for 8 hrs. Type of data set: ADME. The conditions noted are these: in vivo, read-out: beta t1/2 (converted).
Data set [17] can be described thus: Half life in BALB/c mouse at 10 nmol measured for 8 hrs. To be noted: in vivo. Type of data set: ADME.
Data set [18] can be described thus: Acute toxicity in ICR mouse assessed as effect on body weight at 10 micromol/ml measured for 14 days. To be noted: in vivo, 336 h, dose 10 µmol/ml, time 14 day.
Data set [19] deals with KB. As to the kind of experiment: Binding affinity to Folate receptor in human KB cells assessed as relative fluorescence intensity preincubated with compound for 1 hr followed by folic acid addition and measured after 1 hr by flow cytometry analysis. Type of data set: cell-based. The conditions noted are these: time 2.0 hrs.
Another data set addresses Folate receptor alpha (Homo sapiens, UniProt P15328). The experiment in a line: Binding affinity to Folate receptor alpha in human KB cells assessed as dissociation constant. Type of data set: cell-based.
For the next data set, the system named is HUVEC. As to the kind of experiment: Cytotoxicity against human HUVEC cells assessed as cell growth inhibition incubated for 24 hrs by CCK-8 assay. Type of data set: toxicity, cell-based.
A short description of data set [20]: Acute toxicity in ICR mouse assessed as lung damage at 10 micromol/ml measured for 14 days by H and E staining based analysis. Type of data set: tissue-based. The conditions noted are these: in vivo, 336 h, dose 10 µmol/ml, time 14 day.
A short description of data set [21]: Drug uptake in BALB/c mouse liver xenografted with human KB cells at 10 nmol measured for 8 hrs. Type of data set: ADME, tissue-based. To be noted: in vivo.
Data set [22] in a line: Drug uptake in BALB/c mouse stomach xenografted with human KB cells at 10 nmol measured for 8 hrs. Type of data set: ADME, tissue-based. The conditions noted are these: in vivo.
For data set [23], the system named is KB. The experiment in a line: Binding affinity to Folate receptor in human KB cells assessed as relative fluorescence intensity incubated for compound for 1 hr by flow cytometry analysis. Type of data set: cell-based.
Data set [24] is described as follows: Ex vivo biodistribution in BALB/c mouse tumor of human KB cells expressing folate receptor alpha measured for 8 hrs by imaging analysis. Type of data set: ADME, organism-based, Neoplasm.
Data set [25] is described as follows: Drug uptake in BALB/c mouse heart xenografted with human KB cells at 10 nmol measured for 8 hrs. The conditions noted are these: in vivo. Type of data set: ADME, tissue-based.
The nature of data set [26]: Drug uptake in BALB/c mouse spleen xenografted with human KB cells at 10 nmol measured for 8 hrs. The conditions noted are these: in vivo. Type of data set: ADME, tissue-based.
Data set [27] can be described thus: Drug uptake in BALB/c mouse kidney xenografted with human KB cells at 10 nmol measured for 8 hrs. Type of data set: ADME, tissue-based. To be noted: in vivo.
Data set [28] is described as follows: Drug uptake in BALB/c mouse lung xenografted with human KB cells at 10 nmol measured for 8 hrs. Type of data set: ADME, tissue-based. The conditions noted are these: in vivo.
A short description of data set [29]: Drug uptake in BALB/c mouse intestine xenografted with human KB cells at 10 nmol measured for 8 hrs. To be noted: in vivo. Type of data set: ADME, tissue-based.
Data set [30] is described as follows: Drug uptake in human A549 cells assessed as increase in fluorescence intensity in presence of folic acid by fluorescence microscopic analysis. Type of data set: ADME, cell-based.
A short description of data set [31]: Drug uptake in mouse RAW264.7 cells assessed as increase in fluorescence intensity in presence of folic acid by fluorescence microscopic analysis. Type of data set: ADME, cell-based.
The test system of data set [32] is KB. As to the kind of experiment: Binding affinity to Folate receptor in human KB cells assessed as increase in fluorescence intensity incubated for 2 hrs by fluorescence microscopic analysis. Type of data set: cell-based.

Chain of Folate receptor alpha (P15328 whole entry): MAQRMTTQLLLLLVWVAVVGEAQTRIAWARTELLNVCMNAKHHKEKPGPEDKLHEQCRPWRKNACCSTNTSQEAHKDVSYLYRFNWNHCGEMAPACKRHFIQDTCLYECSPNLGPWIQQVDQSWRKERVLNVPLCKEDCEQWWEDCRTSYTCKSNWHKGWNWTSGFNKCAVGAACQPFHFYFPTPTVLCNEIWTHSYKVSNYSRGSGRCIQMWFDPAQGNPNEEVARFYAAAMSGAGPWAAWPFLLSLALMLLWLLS

As to `CC1(C)C(/C=C/C2=C(Oc3ccc(C[C@H](NC(=O)c4ccc(CCCCc5cc6c(=O)[nH]c(N)nc6[nH]5)cc4)C(=O)O)cc3)C(=C/C=C3/N(CCCCS(=O)(=O)O)c4ccccc4C3(C)C)/CCC2)=[N+](CCCCS(=O)(=O)[O-])c2ccccc21`, the Drug uptake entry in data set [1] is given as “Not Active”; in [3] it was “Active”; in [6], “Active”; in data set [12], “Not Active”; in data set [14], “Not Active”. For the same compound, the Activity entry in [2], in [5], in data set [7], in [10], in [11] and in data set [13] was “Non-Toxic” in each case. In addition, the Activity entry (in data set [18]; with HUVEC; in data set [20]) was “Non-Toxic” each time. For the same compound, the Ratio in data set [4] is reported as 2; in [8], 13; in [15] it was 8. The result in the data set with KB [9] and in the data set with KB [19] was Active. Further, the Kd on Folate receptor beta was 16 nM; on Folate receptor alpha, 14.2 nM. The figures for the half-life in [16] and in [17] were 60 min and 15 min, respectively.
In the case of `CC1(C)C(/C=C/C2=C(Oc3ccc(C[C@H](NC(=O)c4ccc(NCc5cnc6nc(N)[nH]c(=O)c6n5)cc4)C(=O)O)cc3)C(=C/C=C3/N(CCCCS(=O)(=O)O)c4ccccc4C3(C)C)/CCC2)=[N+](CCCCS(=O)(=O)[O-])c2ccccc21`, the Drug uptake result in [6] is recorded as “Active”. Besides, in the data set with KB [9], the result was Active. Besides, the figures for the Kd on Folate receptor beta and at Folate receptor alpha were 20.9 nM and 22.1 nM, respectively. Besides, the Activity entry with HUVEC is “Non-Toxic”.
`CC1(C)C(/C=C/C2=C(SC[C@@H](NC(=O)CC[C@H](NC(=O)CNC(=O)Cc3cc4c(=O)[nH]c(N)nc4[nH]3)C(=O)O)C(=O)O)C(=C/C=C3/N(CCCCS(=O)(=O)O)c4ccccc4C3(C)C)/CCC2)=[N+](CCCCS(=O)(=O)[O-])c2ccccc21`: the Drug uptake entry was “Not Active” in data set [21]; “Not Active” in data set [22]; “Active” in data set [24]; “Not Active” in data set [25]; “Not Active” in data set [26]; “Not Active” in data set [27]. Also, the Drug uptake entry in data set [28] and in data set [29] was “Not Active” each time. Further, the outcome in the data set with KB [23] was inactive. Besides, the Kd at Folate receptor beta worked out at 47.9 nM; at Folate receptor alpha it was 61.2 nM. Also, the Activity entry in the data set on HUVEC is listed as “Non-Toxic”.
For the compound `CC1(C)C(/C=C/C2=C(Oc3ccc(C[C@H](NC(=O)CNC(=O)Cc4cc5c(=O)[nH]c(N)nc5[nH]4)C(=O)O)cc3)C(=C/C=C3/N(CCCCS(=O)(=O)O)c4ccccc4C3(C)C)/CCC2)=[N+](CCCCS(=O)(=O)[O-])c2ccccc21`, the Drug uptake result is “Not Active” in data set [21]; “Not Active” in [22]; “Active” in data set [6]; “Active” in [24]; “Not Active” in data set [25]; “Not Active” in data set [30]. Besides, the Drug uptake result in [26], in data set [27], in data set [28], in data set [29] and in data set [31] was “Not Active” in each case. In addition, the result with KB [23], in the data set on KB [19] and in the data set with KB [32] was Active. For the same compound, the Kd at Folate receptor beta is 26.1 nM; on Folate receptor alpha it was 39.8 nM. Moreover, the Activity result in the data set with HUVEC is given as “Non-Toxic”.
Take `CC1(C)C(/C=C/C2=C(Oc3ccc(C[C@H](NC(=O)c4ccc(CCCCc5cc6c(=O)[nH]c(N)nc6[nH]5)s4)C(=O)O)cc3)C(=C/C=C3/N(CCCCS(=O)(=O)O)c4ccccc4C3(C)C)/CCC2)=[N+](CCCCS(=O)(=O)[O-])c2ccccc21`: the Drug uptake entry in [21] and in data set [6] was “Active” throughout. Further, the result with KB [9] and in the data set on KB [19] was Active. The Kd at Folate receptor beta worked out at 11 nM; at Folate receptor alpha it was 10.3 nM. In addition, the Activity result in the data set on HUVEC is “Non-Toxic”.
Turning to `CC1(C)C(/C=C/C2=C(SC[C@H](NC(=O)CNC(=O)Cc3cc4c(=O)[nH]c(N)nc4[nH]3)C(=O)O)C(=C/C=C3/N(CCCCS(=O)(=O)O)c4ccccc4C3(C)C)/CCC2)=[N+](CCCCS(=O)(=O)[O-])c2ccccc21`, the Drug uptake result is “Not Active” in data set [21]; “Not Active” in [22]; “Active” in [24]; “Not Active” in [25]; “Not Active” in [26]; “Not Active” in [27]. For the same compound, the Drug uptake entry in [28] and in data set [29] was “Not Active” in each case. The outcome with KB [23] was inactive. Also, the figures for the Kd at Folate receptor beta and on Folate receptor alpha were 58.9 nM and 81.9 nM, respectively. In the data set on HUVEC, the Activity entry is reported as “Non-Toxic”.

For the origin of these results see ChEMBL document CHEMBL5634159, “Discovery of novel tumor-targeted near-infrared probes with 6-substituted pyrrolo[2,3-d]pyrimidines as targeting ligands” (Eur J Med Chem, 2023).
